Results taken from PMC4595979 (Horticulture Research, 2015).

Key:
LOX2:Md:2a (MdLOX2a) = molecular target: T1, LOX2:Md:2a (MdLOX2a) (Malus domestica, UniProt S4U6N9); assay: HPLC product analysis; type: biochemical; conditions: 50 mM sodium phosphate pH 7.5, 25 °C, 0.3 mM substrate
T1 sequence (S4U6N9 1-906): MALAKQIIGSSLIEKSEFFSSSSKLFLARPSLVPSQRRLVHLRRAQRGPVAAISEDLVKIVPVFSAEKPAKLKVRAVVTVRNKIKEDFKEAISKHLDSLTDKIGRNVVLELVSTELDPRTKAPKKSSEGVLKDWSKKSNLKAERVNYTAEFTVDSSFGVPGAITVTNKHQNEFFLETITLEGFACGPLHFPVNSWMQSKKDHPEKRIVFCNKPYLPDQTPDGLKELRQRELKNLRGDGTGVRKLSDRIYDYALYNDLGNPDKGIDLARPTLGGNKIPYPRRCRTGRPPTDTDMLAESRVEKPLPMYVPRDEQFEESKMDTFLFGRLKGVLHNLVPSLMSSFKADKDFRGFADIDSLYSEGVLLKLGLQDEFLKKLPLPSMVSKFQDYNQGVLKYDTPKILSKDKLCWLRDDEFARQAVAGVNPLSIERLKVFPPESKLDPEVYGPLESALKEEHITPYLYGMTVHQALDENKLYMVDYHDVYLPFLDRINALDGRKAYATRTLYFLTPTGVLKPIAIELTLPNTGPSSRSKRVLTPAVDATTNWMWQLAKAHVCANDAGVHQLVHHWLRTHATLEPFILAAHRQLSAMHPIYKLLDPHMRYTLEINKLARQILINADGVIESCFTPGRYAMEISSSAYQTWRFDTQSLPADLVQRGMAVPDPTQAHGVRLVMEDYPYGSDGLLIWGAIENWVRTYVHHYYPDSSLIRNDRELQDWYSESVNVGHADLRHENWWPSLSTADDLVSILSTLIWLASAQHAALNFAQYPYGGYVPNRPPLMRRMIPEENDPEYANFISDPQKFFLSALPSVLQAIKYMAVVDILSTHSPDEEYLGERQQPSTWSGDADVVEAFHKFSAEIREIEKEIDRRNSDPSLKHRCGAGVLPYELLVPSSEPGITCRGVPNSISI

LOX2:Md:2b (MdLOX2b) = molecular target: T2, LOX2:Md:2b (MdLOX2b) (Malus domestica, UniProt S4ULD7); assay: HPLC product analysis; type: biochemical; conditions: 50 mM sodium phosphate pH 7.5, 25 °C, 0.3 mM substrate
T2 sequence (S4ULD7 1-905): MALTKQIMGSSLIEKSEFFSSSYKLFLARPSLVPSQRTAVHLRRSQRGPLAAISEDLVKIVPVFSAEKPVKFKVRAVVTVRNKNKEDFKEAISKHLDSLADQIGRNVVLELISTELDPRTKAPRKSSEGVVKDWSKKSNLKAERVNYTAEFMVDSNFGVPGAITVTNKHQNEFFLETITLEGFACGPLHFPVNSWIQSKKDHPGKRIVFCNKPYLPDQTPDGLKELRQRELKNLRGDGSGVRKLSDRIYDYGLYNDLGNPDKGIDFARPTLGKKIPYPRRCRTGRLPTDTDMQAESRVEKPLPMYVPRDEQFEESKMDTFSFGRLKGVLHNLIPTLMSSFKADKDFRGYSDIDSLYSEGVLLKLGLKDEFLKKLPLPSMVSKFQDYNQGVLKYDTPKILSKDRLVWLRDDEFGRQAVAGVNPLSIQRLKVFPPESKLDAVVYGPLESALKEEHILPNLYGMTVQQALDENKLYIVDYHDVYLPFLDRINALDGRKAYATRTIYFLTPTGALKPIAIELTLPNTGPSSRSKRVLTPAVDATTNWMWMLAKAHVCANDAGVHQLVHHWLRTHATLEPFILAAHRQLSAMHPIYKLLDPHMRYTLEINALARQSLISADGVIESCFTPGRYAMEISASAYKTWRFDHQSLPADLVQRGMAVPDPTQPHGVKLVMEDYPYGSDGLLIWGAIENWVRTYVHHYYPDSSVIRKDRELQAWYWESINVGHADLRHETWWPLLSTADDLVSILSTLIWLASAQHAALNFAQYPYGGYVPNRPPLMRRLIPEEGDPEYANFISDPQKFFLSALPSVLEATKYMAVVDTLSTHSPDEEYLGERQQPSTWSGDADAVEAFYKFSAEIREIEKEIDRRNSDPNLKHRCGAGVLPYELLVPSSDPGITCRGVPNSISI

Row | Compound | HPLC product analysis (SP-HPLC, CP-HPLC) (LOX2:Md:2a (MdLOX2a)) | HPLC product analysis (SP-HPLC, CP-HPLC) (LOX2:Md:2b (MdLOX2b))
1 | CCCCC/C=C\C/C=C\CCCCCCCC(=O)O [linoleic acid] | LOX2:Md:2a and LOX2:Md:2b converted LA and LnA predominantly to 13-hydroperoxides | LOX2:Md:2a and LOX2:Md:2b converted LA and LnA predominantly to 13-hydroperoxides
2 | CC/C=C\C/C=C\C/C=C\CCCCCCCC(=O)O [α-linolenic acid] | LOX2:Md:2a and LOX2:Md:2b converted LA and LnA predominantly to 13-hydroperoxides | LOX2:Md:2a and LOX2:Md:2b converted LA and LnA predominantly to 13-hydroperoxides
